Experimental data as given in patent publication US9695155B2, “Herbicidal substituted pyrimidinyloxy benzene compounds” (E. I. DU PONT DE NEMOURS AND COMPANY, priority 2013, dated 2017).

Experiments:
Assay in all cases: Test E preemergence
[1] = test system: soybean; type: in vivo, Glycine max; conditions: for Soybean plant response rating: scale 0 to 100 (0 no effect, 100 complete control)
How it was run: (§1)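 Response was scored visually on a 0-100 scale (100 = complete control) versus controls after 14 to 21 days in the greenhouse. Test chemicals, formulated with surfactant in a non-phytotoxic solvent mixture, had been applied preemergence to seeds in silt loam soil or postemergence to 1- to 4-leaf plants in potting medium.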

[2] = test system: velvetleaf; type: in vivo, Abutilon theophrasti; conditions: for Velvetleaf plant response rating: scale 0 to 100 (0 no effect, 100 complete control)
How it was run: as §1

[3] = test system: wild poinsettia; type: in vivo, Euphorbia heterophylla; conditions: for Poinsettia, Wild plant response rating: scale 0 to 100 (0 no effect, 100 complete control)
Description: (§2) Seeds of plant species selected from corn (Zea mays), soybean (Glycine max), velvetleaf (Abutilon theophrasti), lambsquarters (Chenopodium album), wild poinsettia (Euphorbia heterophylla), palmer pigweed (Amaranthus palmeri), waterhemp (common waterhemp, Amaranthus rudis), surinam grass (Brachiaria decumbens), large (Lg) crabgrass (Digitaria sanguinalis), Brazilian crabgrass (Digitaria horizontalis), fall panicum (Panicum dichotomiflorum), giant foxtail (Setaria faberii), green foxtail (Setaria viridis), goosegrass (Eleusine indica), johnsongrass (Sorghum halepense), ragweed (common ragweed, Ambrosia elatior), barnyardgrass (Echinochloa crus-galli), sandbur (southern sandbur, Cenchrus echinatus), arrowleaf sida (Sida rhombifolia), Italian ryegrass (Lolium multiflorum), dayflower (Virginia (VA) dayflower, Commelina virginica), field bindweed (Convolvulus arvensis), morningglory (Ipomoea coccinea), nightshade (eastern black nightshade, Solanum ptycanthum), kochia (Kochia scoparia), yellow nutsedge (Cyperus esculentus), cocklebur (common cocklebur, Xanthium strumarium), smartweed (ladysthumb smartweed, and hairy beggarticks (Bidens pilosa), were planted into a silt loam soil and treated preemergence with test chemicals formulated in a non-phytotoxic solvent mixture which included a surfactant.
(§3) At the same time, plants from these crop and weed species and also horseweed (Canada horseweed, Conyza canadensis), waterhemp_RES1, (ALS & Triazine resistant common waterhemp, Amaranthus rudis), and waterhemp_RES2, (ALS & HPPD resistant common waterhemp, Amaranthus rudis) were planted in pots containing Redi-Earth® planting medium (Scotts Company, 14111 Scottslawn Road, Marysville, Ohio 43041) comprising spaghnum peat moss, vermiculite, wetting agent and starter nutrients were treated with postemergence applications of test chemicals formulated in the same manner. Plants ranged in height from 2 to 18 cm for postemergence treatments (1- to 4-leaf stage). Treated plants and controls were maintained in a greenhouse for 14 to 21 days, after which time all species were compared to controls and visually evaluated. Plant response ratings, summarized in Table E, are based on a scale of 0 to 100 where 0 is no effect and 100 is complete control. A dash (-) response means no test result.

[4] = test system: waterhemp; type: in vivo, Amaranthus rudis; conditions: for Waterhemp plant response rating: scale 0 to 100 (0 no effect, 100 complete control)
How it was run: as §1

[5] = test system: Brazilian crabgrass; type: in vivo, Digitaria horizontalis; conditions: for Crabgrass, Brazil plant response rating: scale 0 to 100 (0 no effect, 100 complete control)
How it was run: as §1

[6] = test system: giant foxtail; type: in vivo, Setaria faberii; conditions: for Foxtail, Giant plant response rating: scale 0 to 100 (0 no effect, 100 complete control)
Description: as §2, §3

[7] = test system: green foxtail; type: in vivo, Setaria viridis; conditions: for Foxtail, Green plant response rating: scale 0 to 100 (0 no effect, 100 complete control)
How it was run: as §1

[8] = test system: sandbur; type: in vivo, Cenchrus echinatus; conditions: for Sandbur plant response rating: scale 0 to 100 (0 no effect, 100 complete control)
Description: as §2, §3

[9] = test system: Italian ryegrass; type: in vivo, Lolium multiflorum; conditions: for Ryegrass, Italian plant response rating: scale 0 to 100 (0 no effect, 100 complete control)
Description: as §2, §3

[10] = test system: yellow nutsedge; type: in vivo, Cyperus esculentus; conditions: for Nutsedge, Yellow plant response rating: scale 0 to 100 (0 no effect, 100 complete control)
How it was run: as §1

[11] = test system: hairy beggarticks; type: in vivo, Bidens pilosa; conditions: preemergence; for Beggarticks plant response rating: scale 0 to 100 (0 no effect, 100 complete control)
Description: as §2, §3

[12] = 8 g ai/ha, scale 0 to 100, 0 is no effect, 100 is complete control
[13] = 125 g ai/ha, scale 0 to 100, 0 no effect, 100 complete control

Question: NC(=S)c1cccc(Oc2ncc(Cl)cn2)c1-n1cc(Cl)cn1 [Compound 292] was tested. Which “Plant response rating, Soybean” value [1, 12] did it give?
Answer: The value was 0.

Question: And the “Soybean plant response rating” value ([1]; 31 g ai/ha)?
Answer: The value was 0.

Question: And the “Soybean plant response rating” value ([1]; 62 g ai/ha)?
Answer: The value was 40.

Question: What about the “Plant response rating, Soybean” value [1, 13] of the same compound?
Answer: The value was 50.

Question: And the “Plant response rating, Velvetleaf” value [2, 12]?
Answer: Its value is 0.

Question: What about the “Velvetleaf plant response rating” value ([2]; 31 g ai/ha) of the same compound?
Answer: The value was 30.

Question: What about the “Velvetleaf plant response rating” value ([2]; 62 g ai/ha) of the same compound?
Answer: The value was 35.

Question: What about the “Plant response rating, Velvetleaf” value [2, 13] of the same compound?
Answer: Its value is 90.

Question: What about the “Plant response rating, Poinsettia, Wild” value [3, 12] of the same compound?
Answer: Its value is 0.

Question: What about the “Poinsettia, Wild plant response rating” value ([3]; 31 g ai/ha) of the same compound?
Answer: The value was 5.

Question: What about the “Poinsettia, Wild plant response rating” value ([3]; 62 g ai/ha) of the same compound?
Answer: The value was 35.

Question: What about the “Plant response rating, Poinsettia, Wild” value [3, 13] of the same compound?
Answer: Its value is 60.

Question: What about the “Plant response rating, Waterhemp” value [4, 12] of the same compound?
Answer: The value was 0.

Question: And the “Waterhemp plant response rating” value ([4]; 31 g ai/ha)?
Answer: The value was 20.

Question: What about the “Waterhemp plant response rating” value ([4]; 62 g ai/ha) of the same compound?
Answer: Its value is 80.

Question: And the “Plant response rating, Waterhemp” value [4, 13]?
Answer: Its value is 100.

Question: What about the “Plant response rating, Crabgrass, Brazil” value [5, 12] of the same compound?
Answer: Its value is 0.

Question: What about the “Crabgrass, Brazil plant response rating” value ([5]; 16 g ai/ha) of the same compound?
Answer: The value was 10.

Question: And the “Crabgrass, Brazil plant response rating” value ([5]; 31 g ai/ha)?
Answer: Its value is 40.

Question: And the “Crabgrass, Brazil plant response rating” value ([5]; 62 g ai/ha)?
Answer: The value was 100.

Question: What about the “Plant response rating, Crabgrass, Brazil” value [5, 13] of the same compound?
Answer: The value was 100.

Question: What about the “Plant response rating, Foxtail, Giant” value [6, 12] of the same compound?
Answer: The value was 0.

Question: And the “Foxtail, Giant plant response rating” value ([6]; 16 g ai/ha)?
Answer: The value was 0.

Question: What about the “Foxtail, Giant plant response rating” value ([6]; 31 g ai/ha) of the same compound?
Answer: Its value is 5.

Question: What about the “Foxtail, Giant plant response rating” value ([6]; 62 g ai/ha) of the same compound?
Answer: The value was 80.

Question: And the “Plant response rating, Foxtail, Giant” value [6, 13]?
Answer: Its value is 95.

Question: And the “Plant response rating, Foxtail, Green” value [7, 12]?
Answer: Its value is 0.

Question: And the “Foxtail, Green plant response rating” value ([7]; 16 g ai/ha)?
Answer: Its value is 0.

Question: What about the “Foxtail, Green plant response rating” value ([7]; 31 g ai/ha) of the same compound?
Answer: The value was 10.

Question: And the “Foxtail, Green plant response rating” value ([7]; 62 g ai/ha)?
Answer: Its value is 25.

Question: And the “Plant response rating, Foxtail, Green” value [7, 13]?
Answer: The value was 75.

Question: And the “Plant response rating, Sandbur” value [8, 12]?
Answer: Its value is 0.

Question: And the “Sandbur plant response rating” value ([8]; 31 g ai/ha)?
Answer: The value was 20.

Question: What about the “Sandbur plant response rating” value ([8]; 62 g ai/ha) of the same compound?
Answer: The value was 0.

Question: And the “Plant response rating, Sandbur” value [8, 13]?
Answer: Its value is 35.

Question: What about the “Plant response rating, Ryegrass, Italian” value [9, 12] of the same compound?
Answer: The value was 0.

Question: What about the “Ryegrass, Italian plant response rating” value ([9]; 31 g ai/ha) of the same compound?
Answer: The value was 0.

Question: What about the “Ryegrass, Italian plant response rating” value ([9]; 62 g ai/ha) of the same compound?
Answer: Its value is 0.

Question: And the “Plant response rating, Ryegrass, Italian” value [9, 13]?
Answer: The value was 35.

Question: What about the “Plant response rating, Nutsedge, Yellow” value [10, 12] of the same compound?
Answer: The value was 0.

Question: What about the “Nutsedge, Yellow plant response rating” value ([10]; 31 g ai/ha) of the same compound?
Answer: The value was 0.

Question: What about the “Nutsedge, Yellow plant response rating” value ([10]; 62 g ai/ha) of the same compound?
Answer: The value was 15.

Question: And the “Plant response rating, Nutsedge, Yellow” value [10, 13]?
Answer: The value was 35.

Question: What about the “Plant response rating, Beggarticks” value [11, 12] of the same compound?
Answer: The value was 0.

Question: And the “Beggarticks plant response rating” value ([11]; 16 g ai/ha)?
Answer: The value was 0.

Question: And the “Beggarticks plant response rating” value ([11]; 31 g ai/ha)?
Answer: Its value is 15.

Question: What about the “Beggarticks plant response rating” value ([11]; 62 g ai/ha) of the same compound?
Answer: Its value is 15.

Question: What about the “Plant response rating, Beggarticks” value [11, 13] of the same compound?
Answer: Its value is 35.
